Measurements: patent US20240317735A1, “HYDROISOQUINOLINE OR HYDRONAPHTHYRIDINE COMPOUNDS FOR THE TREATMENT OF AUTOIMMUNE DISEASE” (Hoffmann-La Roche Inc., priority 2020, published 2024)
Read-outs that look alike come from different tables or passages of the source.

Columns and labels:
[1] = Single dose pharmacokinetics (PK) study in male Wister-Han rats; assay type: in vivo, rat; conditions: for F: dose normalized AUC0-last PO 10 mg/kg vs IV 2 mg/kg; for AUC(0-t) / Cmax / clearance / half-life / Vd: rat, plasma; for Vd: read-out: Vss
Description: Pharmacokinetic properties of selected compounds were assessed by single dose PK studies in Male Wister-Han Rats (vendor: Beijing Vital River Laboratory Animal Technology Co., Ltd). Briefly, two groups of animals were administered a single dose of respective compound intravenously (IV, bolus) at 2 mg/kg or orally (PO, by gavage) at 10 mg/kg. Blood samples (approximately 150 μL) were collected via Jugular vein at 5 min (only for IV), 15 min, 30 min, 1 h, 2 h, 4 h, 7 h and 24 h post-dose. Blood samples were placed into tubes containing EDTA-K2 anticoagulant and centrifuged at 3000 rpm for 15 min at 4° C. to separate plasma from the samples. After centrifugation, the resulting plasma was transferred to clean tubes for bioanalysis with LC/MS/MS. The pharmacokinetic parameters were calculated using non-compartmental analysis. The volume of distribution (Vss), half-life (T1/2) and clearance (CL) were obtained based on the plasma concentration-time curve after IV dose. The peak concentration (Cmax) was recorded directly from experimental observations after PO dose. The area under the plasma concentration-time curve (AUC0-last) was calculated using the linear trapezoidal rule up to the last detectable concentration. The bioavailability (F) was calculated based on the dose normalized AUC0-last after IV and PO dose.
The Vss of a drug represents the degree to which a drug is distributed in body tissue rather than the plasma. Vss is directly proportional with the amount of drug distributed into tissue. A higher Vss indicates a greater amount of tissue distribution.

TLR9 = target: T1, TLR9 (Homo sapiens, UniProt Q9NR96); assay: Human PBMC cell-based assay (CpG ODN 2216 stimulation); design: These cells express TLR7, TLR8, or TLR9, and therefore are natural responders to respective ligand stimulation; endogenous in cells; host or cells: human PBMC from healthy donor whole blood; conditions: CpG ODN 2216 at 1 μM, overnight, read-out: hPBMC/TLR9 IC50
T1 sequence (Q9NR96 26-1032): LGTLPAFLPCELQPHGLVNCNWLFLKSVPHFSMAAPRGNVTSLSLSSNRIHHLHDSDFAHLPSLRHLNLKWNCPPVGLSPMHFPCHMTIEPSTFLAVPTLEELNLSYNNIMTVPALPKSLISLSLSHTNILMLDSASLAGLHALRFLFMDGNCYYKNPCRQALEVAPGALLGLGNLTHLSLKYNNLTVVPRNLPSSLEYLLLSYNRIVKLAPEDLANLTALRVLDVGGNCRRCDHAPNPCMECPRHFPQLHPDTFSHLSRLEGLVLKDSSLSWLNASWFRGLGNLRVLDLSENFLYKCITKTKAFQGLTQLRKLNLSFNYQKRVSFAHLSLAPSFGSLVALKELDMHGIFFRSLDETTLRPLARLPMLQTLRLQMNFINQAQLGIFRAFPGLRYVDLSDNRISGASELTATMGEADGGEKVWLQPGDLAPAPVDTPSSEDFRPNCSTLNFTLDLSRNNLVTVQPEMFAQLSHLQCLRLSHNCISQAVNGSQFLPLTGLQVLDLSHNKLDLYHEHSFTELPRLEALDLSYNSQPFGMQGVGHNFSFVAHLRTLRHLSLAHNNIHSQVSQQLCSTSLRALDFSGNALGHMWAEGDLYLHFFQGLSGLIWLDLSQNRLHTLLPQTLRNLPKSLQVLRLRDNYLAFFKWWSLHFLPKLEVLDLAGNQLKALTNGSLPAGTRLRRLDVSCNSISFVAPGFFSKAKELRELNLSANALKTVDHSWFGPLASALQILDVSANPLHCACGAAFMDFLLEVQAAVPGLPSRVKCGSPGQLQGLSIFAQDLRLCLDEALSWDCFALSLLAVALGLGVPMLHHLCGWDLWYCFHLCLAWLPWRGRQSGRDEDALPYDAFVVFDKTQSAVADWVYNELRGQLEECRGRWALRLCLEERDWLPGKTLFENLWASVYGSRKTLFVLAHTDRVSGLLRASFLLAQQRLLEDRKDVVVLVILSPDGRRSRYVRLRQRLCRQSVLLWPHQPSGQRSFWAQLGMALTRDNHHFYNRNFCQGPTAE
From the text: Unlike the HEK reporter cell lines, human peripheral blood mononuclear cell (PBMC) represents primary human immune cells in blood mainly consisting of lymphocytes, monocytes, and dendritic cells. These cells express TLR7, TLR8, or TLR9, and therefore are natural responders to respective ligand stimulation. Upon activation of these TLRs, PBMCs secrete similar cytokines and chemokines in vitro and in vivo, and therefore the in vitro potency of a TLR7/8/9 antagonist in human PBMC is readily translatable to its pharmacodynamics response in vivo.
Human peripheral blood mononuclear cells (PBMC) were isolated from freshly-drawn lithium-heparinized (Lithium Heparin Plus blood Collection tube, BD Vacutainer®) healthy donor whole blood by density gradient (Ficoll-Paque™ PLUS, GE Healthcare life Sciences). Briefly, 50 mL of blood was diluted with 25 mL PBS (without Ca^2+, Mg^2+) in a 50 mL conical tube with porous barrier (Leucosep tube, Greiner bio-one), where 15.5 mL Ficoll-Paque was under laid after spinning. Tubes were centrifuged for 20 minutes at 800×g (1946 rpm) with the brake in the off position, and PBMC were collected from the buffy coat. Cells were then washed twice in PBS, and red blood cells were lysed by suspension in 2 mL (Red Blood Cell Lysis Buffer, Alfa Aesar) for 5-10 minutes at room temperature. After a final wash in PBS, PBMC were resuspended at a final concentration of 2×10^6 cells/mL in RPMI-1640 media with GlutaMAX™ (Gibco) supplemented with 10% Fetal Bovine Serum (Sigma) and plated at 150 μL/well (3×10^5 cells/well) in tissue culture treated round bottom 96-well plates (Corning Incorporated). Antagonist compounds (compounds of this invention) solubilized and serial diluted in 100% DMSO were added in duplicate to cells to yield a final concentration of 1% DMSO (v/v). PBMC were incubated with antagonist compounds for 30 minutes at 37° C., 5% CO2 before adding various TLR agonist reagents in 48 μL complete media per well as follows (final concentrations indicated): CpG ODN 2216 (InvivoGen) at 1 μM for TLR9, ORN 06/LyoVec (InvivoGen) at […] for TLR8 and R848 (InvivoGen) at 1p g/mL for TLR7 and TLR8. PBMC were incubated overnight at 37° C. with 5% CO2. Cell culture supernatants were collected, and levels of various human cytokines were assessed by Luminex assay (ProcartaPlex™ Multiplex Immunoassay, Invitrogen) or ELISA procedure according to the manufacturer's recommended protocol (eBioscience, ThermoFisher Scientific). Viability of the cells was also checked with Cell Viability Assay (CellTiter Glo®Luminescent Cell Viability Assay, Promega).

[2] = IV 2 mg/kg, read-out: IV AUC0-last
[3] = PO 10 mg/kg, read-out: PO AUC0-last

Structure (SMILES)	F [1] [%]	AUC(0-t) [1, 2] [ng·h/mL]	Cmax ([1]; PO 10 mg/kg) [ng/mL]	AUC(0-t) [1, 3] [ng·h/mL]	clearance ([1]; IV 2 mg/kg) [mL/min/kg]	half-life ([1]; IV 2 mg/kg) [h]	Vd ([1]; IV 2 mg/kg) [L/kg]	IC50 (TLR9) [nM]
CO[C@@H]1CN(c2ccc3c(c2)[C@@H](C)CN(c2cc(C)nc4c2cnn4C)C3)C[C@H]1N [Example 23, (3R,4R)-4-methoxy-1-[(4R)-2-(1,6-dimethylpyrazolo[3,4-b]pyridin-4-yl)-4-methyl-3,4-dihydro-1H-isoquinolin-6-yl]pyrrolidin-3-amine]	73	7550	1600	27500	3.7	10.5	2.7	240
CO[C@@H]1CN(c2ccc3c(n2)[C@@H](C)CN(c2cc(C)nc4c2cnn4C)C3)C[C@H]1N [Example 63, (3R,4R)-4-methoxy-1-[(8S)-6-(1,6-dimethylpyrazolo[3,4-b]pyridin-4-yl)-8-methyl-7,8-dihydro-5H-1,6-naphthyridin-2-yl]pyrrolidin-3-amine]	98	80700	22200	394000	0.26	18.3	0.38	430
C[C@H]1CN(c2ccnc3c2cnn3C)Cc2ccc(N3CCNCC3)cc21 [Example 1, (4R)-4-methyl-2-(1-methylpyrazolo[3,4-b]pyridin-4-yl)-6-piperazin-1-yl-3,4-dihydro-1H-isoquinoline]	113	1290	474	7270	24	6.9	11.2	396
